Data published in patent publication US20090306133A1, “New Acetyl Coenzyme A Carboxylase (ACC) Inhibitors And Uses In Treatments Of Obesity And Diabetes Mellitus - 087” (ASTRAZENECA AB, priority 2007, published 2009).

Assays:
[1] = target: Human recombinant Acetyl-CoA Carboxylase 2 (ACC2) (Homo sapiens, UniProt O00763); experiment: Assay Y: ACC2 inhibition, inorganic phosphate (Malachite Green); format: biochemical; details: Assay Y: room temperature, 3 hr, 15 min preincubation
Summary of the method: (§1)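 Enzyme preincubated with compound 15 min before substrate addition; reaction run 3 h, then phosphate detected with Malachite Green at 670 nm after 10 min at room temperature. Triplicate 10-point titrations; IC50 by non-linear four-parameter curve fitting.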

[2] = target: Human recombinant Acetyl-CoA Carboxylase 1 (ACC1) (Homo sapiens, UniProt Q13085); experiment: Assay Y: ACC1 inhibition, inorganic phosphate (Malachite Green); format: biochemical; details: Assay Y: room temperature, 3 hr, 15 min preincubation
Summary of the method: as §1

Human recombinant Acetyl-CoA Carboxylase 2 (ACC2), sequence (O00763 whole entry): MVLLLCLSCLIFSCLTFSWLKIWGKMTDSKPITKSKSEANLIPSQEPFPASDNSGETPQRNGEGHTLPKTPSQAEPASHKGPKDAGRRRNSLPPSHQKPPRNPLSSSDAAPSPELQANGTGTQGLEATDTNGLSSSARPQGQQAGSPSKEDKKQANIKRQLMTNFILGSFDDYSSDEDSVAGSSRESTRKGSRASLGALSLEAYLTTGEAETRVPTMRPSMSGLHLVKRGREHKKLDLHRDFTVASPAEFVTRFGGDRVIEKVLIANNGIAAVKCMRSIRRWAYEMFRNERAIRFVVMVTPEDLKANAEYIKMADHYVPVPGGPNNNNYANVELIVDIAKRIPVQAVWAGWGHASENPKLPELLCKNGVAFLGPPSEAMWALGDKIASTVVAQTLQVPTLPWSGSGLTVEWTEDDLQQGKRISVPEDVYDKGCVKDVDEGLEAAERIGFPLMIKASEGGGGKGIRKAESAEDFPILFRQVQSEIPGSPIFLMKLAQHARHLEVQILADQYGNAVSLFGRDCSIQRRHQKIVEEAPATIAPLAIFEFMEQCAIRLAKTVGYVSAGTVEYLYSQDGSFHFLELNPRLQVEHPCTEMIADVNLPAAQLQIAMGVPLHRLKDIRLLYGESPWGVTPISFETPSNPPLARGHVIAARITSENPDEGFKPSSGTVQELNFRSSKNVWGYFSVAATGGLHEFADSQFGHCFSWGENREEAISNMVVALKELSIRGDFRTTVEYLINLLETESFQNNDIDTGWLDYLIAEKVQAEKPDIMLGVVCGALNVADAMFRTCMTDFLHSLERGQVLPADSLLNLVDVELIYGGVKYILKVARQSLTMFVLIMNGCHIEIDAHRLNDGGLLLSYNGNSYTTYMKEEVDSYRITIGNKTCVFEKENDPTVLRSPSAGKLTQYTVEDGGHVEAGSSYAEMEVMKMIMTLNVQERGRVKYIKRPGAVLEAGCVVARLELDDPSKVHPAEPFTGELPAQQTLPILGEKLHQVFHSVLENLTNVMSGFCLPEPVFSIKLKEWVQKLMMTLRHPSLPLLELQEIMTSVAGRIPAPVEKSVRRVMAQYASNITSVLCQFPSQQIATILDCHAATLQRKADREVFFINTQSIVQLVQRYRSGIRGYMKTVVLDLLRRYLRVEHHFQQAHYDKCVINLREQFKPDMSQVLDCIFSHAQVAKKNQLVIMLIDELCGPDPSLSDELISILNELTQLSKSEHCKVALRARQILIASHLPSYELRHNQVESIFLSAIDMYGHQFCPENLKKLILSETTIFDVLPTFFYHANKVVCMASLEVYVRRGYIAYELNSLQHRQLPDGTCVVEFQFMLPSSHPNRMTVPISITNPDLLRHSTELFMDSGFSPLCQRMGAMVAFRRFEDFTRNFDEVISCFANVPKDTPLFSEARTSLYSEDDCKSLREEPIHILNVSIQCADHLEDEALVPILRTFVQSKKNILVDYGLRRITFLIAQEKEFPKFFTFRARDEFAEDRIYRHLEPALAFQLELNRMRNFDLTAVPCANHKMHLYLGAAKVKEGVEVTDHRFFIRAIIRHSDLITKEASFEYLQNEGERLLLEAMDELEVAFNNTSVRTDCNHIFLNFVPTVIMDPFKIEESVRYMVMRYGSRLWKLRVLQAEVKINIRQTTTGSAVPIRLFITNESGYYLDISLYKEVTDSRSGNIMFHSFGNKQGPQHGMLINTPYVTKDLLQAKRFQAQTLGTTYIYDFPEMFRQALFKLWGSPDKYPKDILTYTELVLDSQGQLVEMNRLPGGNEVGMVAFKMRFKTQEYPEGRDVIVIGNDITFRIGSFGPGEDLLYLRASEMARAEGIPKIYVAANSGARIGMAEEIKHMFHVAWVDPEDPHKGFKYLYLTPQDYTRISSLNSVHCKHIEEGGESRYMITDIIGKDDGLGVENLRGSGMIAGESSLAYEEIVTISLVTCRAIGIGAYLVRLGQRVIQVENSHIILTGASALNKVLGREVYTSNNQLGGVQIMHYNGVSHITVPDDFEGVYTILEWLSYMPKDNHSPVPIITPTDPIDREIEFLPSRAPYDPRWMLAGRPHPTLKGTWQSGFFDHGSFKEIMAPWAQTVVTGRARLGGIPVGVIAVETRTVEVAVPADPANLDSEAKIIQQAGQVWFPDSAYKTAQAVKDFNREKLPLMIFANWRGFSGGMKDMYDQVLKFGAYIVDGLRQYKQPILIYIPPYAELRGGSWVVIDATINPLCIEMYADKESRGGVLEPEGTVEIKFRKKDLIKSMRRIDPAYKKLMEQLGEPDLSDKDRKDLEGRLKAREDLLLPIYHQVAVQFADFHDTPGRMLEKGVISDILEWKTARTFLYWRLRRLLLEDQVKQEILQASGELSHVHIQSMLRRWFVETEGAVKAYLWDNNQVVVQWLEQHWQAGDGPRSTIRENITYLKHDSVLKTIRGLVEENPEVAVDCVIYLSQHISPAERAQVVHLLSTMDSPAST

Row | Structure (SMILES) | IC50 [1] [nM] | IC50 [2] [nM]
1 | CCCCN(C[C@H]1CC[C@H](CNC(=O)OC(C)(C)C)CC1)S(=O)(=O)c1ccc2ccccc2c1 [Example 85, tert-Butyl [(trans-4-{[butyl(2-naphthylsulfonyl)amino]methyl}cyclohexyl)methyl]-carbamate] | 6690 | > 20000
2 | CCOC(=O)NC[C@H]1CC[C@H](CNC(=O)c2cc(-c3ccc(C)cc3)nc3ccccc23)CC1 [Example 28, Ethyl ({trans-4-[({[2-(4-methylphenyl)quinolin-4-yl]carbonyl}amino)methyl]cyclo-hexyl}methyl)carbamate] | 1170 | 6000
3 | CC(C)(C)OC(=O)NC[C@H]1CC[C@H](CNC(=O)c2cc(-c3ccc(Cl)cc3)nc3ccccc23)CC1 [Example 21, tert-Butyl ({trans-4-[({[2-(4-chlorophenyl)quinolin-4-yl]carbonyl}amino)methyl]cyclo-hexyl}methyl)carbamate] | 970 | 1490
4 | CC(C)(C)OC(=O)NC[C@H]1CC[C@H](CNC(=O)c2cc(-c3ccc(CC(=O)O)cc3)nc3ccccc23)CC1 [Example 107, [4-(4-{[(trans-4-{[(tert-Butoxycarbonyl)amino]methyl}cyclohexyl)methyl]-carbamoyl}quinolin-2-yl)phenyl]acetic Acid] | 210 | 2620
5 | CCOC(=O)NC[C@H]1CC[C@H](CNC(=O)c2cc(-c3ccc(F)cc3)nc3ccccc23)CC1 [Example 17, Ethyl ({trans-4-[({[2-(4-fluorophenyl)quinolin-4-yl]carbonyl}amino)methyl]cyclo-hexyl}methyl)carbamate] | 1940 | > 20000
6 | CC(=O)c1ccc(-c2cc(C(=O)NC[C@H]3CC[C@H](CNC(=O)OC(C)(C)C)CC3)c3ccccc3n2)s1 [Example 13, tert-Butyl ({trans-4-[({[2-(5-acetyl-2-thienyl)quinolin-4-yl]carbonyl}amino)methyl]-cyclohexyl}methyl)carbamate] | 160 | 450
7 | CCOC(=O)NC[C@H]1CC[C@H](CNC(=O)c2cc(-c3cccc(OC)c3)nc3ccccc23)CC1 [Example 27, Ethyl ({trans-4-[({[2-(3-methoxyphenyl)quinolin-4-yl]carbonyl}amino)methyl]cyclo-hexyl}methyl)carbamate] | 1180 | 3590
8 | CCOC(=O)NC[C@H]1CC[C@H](CNS(=O)(=O)c2ccc3ccccc3c2)CC1 [Example 54, Ethyl [(trans-4-{[(2-naphthylsulfonyl)amino]methyl}cyclohexyl)methyl]carbamate] | 3990 | > 20000
9 | CN(C)c1ccc(-c2cc(C(=O)NC[C@H]3CC[C@H](CNC(=O)OC(C)(C)C)CC3)c3ccccc3n2)cn1 [Example 11, tert-Butyl [(trans-4-{[({2-[6-(dimethylamino)pyridin-3-yl]quinolin-4-yl}carbonyl)-amino]methyl}cyclohexyl)methyl]carbamate] | 100 | 1220
10 | CC(C)(C)OC(=O)NC[C@H]1CC[C@H](CNC(=O)c2cccc3ccccc23)CC1 [Example 96, tert-Butyl ({trans-4-[(1-naphthoylamino)methyl]cyclohexyl}methyl)carbamate] | 3640 | > 20000
11 | CN1CCN(c2ccc(-c3cc(C(=O)NC[C@H]4CC[C@H](CNC(=O)OC(C)(C)C)CC4)c4ccccc4n3)cn2)CC1 [Example 1, tert-butyl [(trans-4-{[({2-[6-(4-methylpiperazin-1-yl)pyridin-3-yl]quinolin-4-yl}carbonyl)amino]methyl}cyclohexyl)methyl]carbamate] | 50 | 200
12 | Cc1nc(-c2ccc(S(=O)(=O)NC[C@H]3CC[C@H](CNC(=O)OC(C)(C)C)CC3)s2)cs1 [Example 70, tert-Butyl ({trans-4-[({[5-(2-methyl-1,3-thiazol-4-yl)-2-thienyl]sulfonyl}amino)-methyl]cyclohexyl}methyl)carbamate] | 2850 | > 20000
13 | CC(C)(C)OC(=O)NC[C@H]1CC[C@H](CNS(=O)(=O)c2ccsc2)CC1 [Example 74, tert-Butyl [(trans-4-{[(3-thienylsulfonyl)amino]methyl}cyclohexyl)methyl]-carbamate] | 9490 | > 20000

Now from value to compound:

Row | IC50 [1] [nM] | IC50 [2] [nM] | Structure (SMILES)
14 | 710 | 3760 | NS(=O)(=O)c1ccc(-c2cc(C(=O)NC[C@H]3CC[C@H](CNC(=O)OC4CCOCC4)CC3)c3ccccc3n2)cc1 [Example 138, Tetrahydro-2H-pyran-4-yl[(trans-4-{[({2-[4-(aminosulfonyl)phenyl]-quinolin-4-yl}carbonyl)amino]-methyl}cyclohexyl)-methyl]carbamate]
15 | 100 | 530 | CNS(=O)(=O)c1ccc(-c2cc(C(=O)NC[C@H]3CC[C@H](CNC(=O)OC(C)(C)C)CC3)c3ccccc3n2)cc1 [Example 134, tert-Butyl {[trans-4-({[(2-{4-[(methylamino)sulfonyl]-phenyl}quinolin-4-yl)carbonyl]amino}methyl)cyclohexyl]methyl}-carbamate]
16 | 560 | 8480 | CC(C)(C)OC(=O)NC[C@H]1CC[C@H](CNC(=O)c2cc(N3CCC(O)CC3)nc3ccccc23)CC1 [Example 187, tert-Butyl({trans-4-[({[2-(4-hydroxypiperidin-1-yl)quinolin-4-yl]carbonyl}amino)-methyl]cyclohexyl}-methyl)carbamate]
17 | 940 | 7800 | COC[C@@H](C)OC(=O)NC[C@H]1CC[C@H](CNC(=O)c2cc(-c3ccc(N4CCN(C)CC4)nc3)nc3ccccc23)CC1 (stereo in doubt) [Example 113, (1R)-2-Methoxy-1-methylethyl[(trans-4-{[({2-[6-(4-methylpiperazin-1-yl)pyridin-3-yl]quinolin-4-yl}carbonyl)amino]methyl}cyclohexyl)methyl]carbamate]
18 | 30 | 360 | CC(C)(C)OC(=O)NC[C@H]1CC[C@H](CNC(=O)c2cc(-c3ccc(NCCO)nc3)nc3ccccc23)CC1 [Example 143, tert-Butyl{[trans-4-({[(2-{6-[(2-hydroxyethyl)amino]pyridin-3-yl}quinolin-4-yl)carbonyl]amino}methyl)cyclohexyl]methyl}carbamate]
19 | 410 | 960 | CN1CCN(c2ccc(-c3cc(C(=O)NC[C@H]4CC[C@H](CNC(=O)OCC(F)F)CC4)c4ccccc4n3)cn2)CC1 [Example 117, 2,2-Difluoroethyl[(trans-4-{[({2-[6-(4-methylpiperazin-1-yl)pyridin-3-yl]quinolin-4-yl}carbonyl)amino]methyl}cyclohexyl)methyl]carbamate]
20 | 1760 | 6430 | CN1CCN(CCOc2cc(C(=O)NC[C@H]3CC[C@H](CNC(=O)OC(C)(C)C)CC3)c3ccccc3n2)CC1 [Example 182, tert-Butyl[(trans-4-{[({2-[2-(4-methylpiperazin-1-yl)ethoxy]quinolin-4-yl}carbonyl)amino]methyl}cyclohexyl)methyl]carbamate]
21 | 30 | 180 | CN(C)CCNc1ccc(-c2cc(C(=O)NC[C@H]3CC[C@H](CNC(=O)OC(C)(C)C)CC3)c3ccccc3n2)cn1 [Example 146, tert-Butyl({trans-4-[({[2-(6-{[2-(dimethylamino)ethyl]-amino}pyridin-3-yl)quinolin-4-yl]carbonyl}amino)-methyl]cyclohexyl}-methyl)carbamate]
